Entries after “also recorded” stand apart in the source; their conditions may differ. Like-named read-outs stand apart in the source and are kept apart here. Bounds are passed on as bounds.

The target of series [1] is human cannabinoid CB1 receptor (Homo sapiens, UniProt P21554). Put plainly: biochemical. It counts as binding. The following applies: for CB1/CB2 selectivity ratio CB1 versus CB2: from Ki values at hCB1 and hCB2.
In series [2] the target is human cannabinoid CB2 receptor (Homo sapiens, UniProt P34972). Put plainly: Competitive radioligand binding, displacement of [3H]-CP55,940 from hCB2. On the technique in general: Loss of bound radioactivity is the signal in a displacement assay; it reports binding, not function.
A further series relates to mouse cannabinoid tetrad. Put plainly: Mouse cannabinoid tetrad. As to conditions: mice, i.p.; WIN 2.5 and 5 mg/kg, 13a 5 and 10 mg/kg.
For another series, the system named is mouse vas deferens. The experiment in a line: Isolated tissue assay: electrically evoked contractions of mouse vas deferens. As to conditions: 10^−7–1.8 × 10^−5 M, concentration-response curves.

human cannabinoid CB2 receptor, sequence (P34972 whole entry): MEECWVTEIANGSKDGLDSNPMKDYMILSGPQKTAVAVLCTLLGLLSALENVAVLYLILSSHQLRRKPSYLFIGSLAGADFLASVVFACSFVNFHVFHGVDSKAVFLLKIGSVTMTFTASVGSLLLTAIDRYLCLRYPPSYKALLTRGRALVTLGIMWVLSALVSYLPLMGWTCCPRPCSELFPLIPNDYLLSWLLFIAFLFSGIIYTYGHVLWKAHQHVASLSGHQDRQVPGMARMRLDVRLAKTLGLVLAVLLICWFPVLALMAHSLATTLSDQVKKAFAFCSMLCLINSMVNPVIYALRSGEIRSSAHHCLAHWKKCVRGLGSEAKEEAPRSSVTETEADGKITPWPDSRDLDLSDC
human cannabinoid CB1 receptor, sequence (P21554 whole entry): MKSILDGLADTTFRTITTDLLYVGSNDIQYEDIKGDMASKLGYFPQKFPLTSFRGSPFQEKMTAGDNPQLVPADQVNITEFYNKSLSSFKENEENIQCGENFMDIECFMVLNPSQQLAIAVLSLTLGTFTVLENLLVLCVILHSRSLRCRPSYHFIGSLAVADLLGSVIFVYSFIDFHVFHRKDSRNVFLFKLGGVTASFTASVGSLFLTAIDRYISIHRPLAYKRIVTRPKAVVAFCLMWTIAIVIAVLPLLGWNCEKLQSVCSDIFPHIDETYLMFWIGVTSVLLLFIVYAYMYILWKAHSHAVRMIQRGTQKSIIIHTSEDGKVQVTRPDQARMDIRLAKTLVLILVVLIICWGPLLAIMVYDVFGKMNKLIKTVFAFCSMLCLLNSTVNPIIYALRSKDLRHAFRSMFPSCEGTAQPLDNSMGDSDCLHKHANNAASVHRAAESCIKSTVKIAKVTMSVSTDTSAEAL

A word on the Ki: it is a measure of affinity in units of concentration, obtained from inhibition or displacement. As for `CCCCCc1cc(O)c2c(c1)OC(C)(C)c1cn(C)nc1-2` [Compound 8b, 2,4-dihydro-2,4,4-trimethyl-7-pentylchromeno[4,3-c]pyrazol-9-ol], in series [1], the “Binding to CB1 receptor (in words)” value is recorded as “failed to bind to either CB1 or CB2 receptors” and affinity was put at a Ki of 22.1 ± 1.41 µM. Further, in series [2], the “Binding to CB2 receptor (in words)” value was “failed to bind to either CB1 or CB2 receptors” and the inhibitory constant (Ki) was > 40 µM.

For `CCCCCc1cc(O)c2c(c1)OC(C)(C)c1cnn(CC)c1-2` [Compound 9a, 1-Ethyl-1,4-dihydro-4,4-dimethyl-7-pentylchromeno[4,3-c]pyrazol-9-ol], in series [1], the “Binding to CB1 receptor (in words)” value is recorded as “failed to bind to either CB1 or CB2 receptors” and the inhibitory constant (Ki) came out at 9.61 µM. In series [2], the “Binding to CB2 receptor (in words)” value is given as “failed to bind to either CB1 or CB2 receptors” and the inhibitory constant (Ki) was > 40 µM.

As to `CCCCCCC(C)(C)c1cc(O)c2c(c1)OC(C)(C)c1cnn(-c3ccc(Cl)cc3Cl)c1-2` [Compound 15a, 1-(2,4-Dichlorophenyl)-7-(1,1-dimethylheptyl)-1,4-dihydro-4,4-dimethylchromeno[4,3-c]pyrazol-9-ol], the “CB1/CB2 selectivity ratio CB1 versus CB2” value in series [1] is given as >1000. In addition, the inhibition constant Ki in series [2] was > 40 µM.

Regarding `Cc1c(C(=O)c2cccc3ccccc23)c2cccc3c2n1[C@H](CN1CCOCC1)CO3` [WIN55,212-2, reference compound], in the series on mouse cannabinoid tetrad, the “Antinociception in the hot-plate test (cannabinoid tetrad)” value was “induced antinociceptive effect in the hot-plate test”, the “Catalepsy on a ring (cannabinoid tetrad)” value is “catalepsy”, the “Locomotor activity on the rota-rod test (cannabinoid tetrad)” value is “reduction of the locomotor activity” and the “Rectal temperature / hypothermia (cannabinoid tetrad)” value was “hypothermia”.

For `CCCCCCC(C)(C)c1cc(O)c2c(c1)OC(C)(C)c1cn(CC)nc1-2` [Compound 13b, 7-(1,1-dimethylheptyl)-2-ethyl-2,4-dihydro-4,4-dimethylchromeno[4,3-c]pyrazol-9-ol], the “CB1/CB2 selectivity ratio CB1 versus CB2” value in series [1] is reported as >1000. For the same molecule, in series [2], the inhibition constant Ki was > 40 µM.

Take `CCCCCCC(C)(C)c1cc(O)c2c(c1)OC(C)(C)c1cn[nH]c1-2` [Compound 11, 1,4-Dihydro-4,4-dimethyl-7-(1,1-dimethylheptyl)chromeno[4,3-c]pyrazol-9-ol]: the “CB1/CB2 selectivity ratio CB1 versus CB2” value in series [1] is >1000. For the same molecule, in series [2], the Ki was > 40 µM.

With `CCCCCCC(C)(C)c1cc(O)c2c(c1)OC(C)(C)c1cnn(-c3ccc(Cl)c(Cl)c3)c1-2` [Compound 14a, 1-(3,4-Dichlorophenyl)-7-(1,1-dimethylheptyl)-1,4-dihydro-4,4-dimethylchromeno[4,3-c]pyrazol-9-ol], in series [1], the “Binding to CB1 receptor (in words)” value is recorded as “reduced affinity for both receptors; also recorded: loss of affinity for CB1” and the “CB1/CB2 selectivity ratio CB1 versus CB2” value is listed as 0.5. For the same molecule, the “Binding to CB2 receptor (in words)” value in series [2] was “reduced affinity for both receptors; also recorded: moderate affinity for CB2 receptor”.

`CCCCCCC(C)(C)c1cc(O)c2c(c1)OC(C)(C)c1cn(C)nc1-2` [Compound 12b, 7-(1,1-Dimethylheptyl)-2,4-dihydro-2,4,4-trimethylchromeno[4,3-c]pyrazol-9-ol]: in series [1], the “CB1/CB2 selectivity ratio CB1 versus CB2” value is on record as >1000. The Ki in series [2] is > 40 µM.

For `CCCCCCC(C)(C)c1cc(O)c2c(c1)OC(C)(C)c1cnn(CC)c1-2` [Compound 13a, 7-(1,1-Dimethylheptyl)-1-ethyl-1,4-dihydro-4,4-dimethylchromeno[4,3-c]pyrazol-9-ol], the “CB1/CB2 selectivity ratio CB1 versus CB2” value in series [1] is reported as >1000. Moreover, the Ki in series [2] was > 40 µM. The “Effect on electrically evoked contractile response of mouse vas deferens” value in the series with mouse vas deferens was “highest effectiveness; also recorded: most effective cannabinoid agonist”. In the series with mouse cannabinoid tetrad, the “Antinociception in the hot-plate test (cannabinoid tetrad)” value is “did not modify any of the signs of cannabinoid tetrad”, the “Catalepsy on a ring (cannabinoid tetrad)” value was “did not modify any of the signs of cannabinoid tetrad”, the “Locomotor activity on the rota-rod test (cannabinoid tetrad)” value was “did not modify any of the signs of cannabinoid tetrad” and the “Rectal temperature / hypothermia (cannabinoid tetrad)” value is “did not modify any of the signs of cannabinoid tetrad”.

Regarding `CCCCCc1cc(O)c2c(c1)OC(C)(C)c1cnn(-c3ccc(Cl)c(Cl)c3)c1-2` [Compound 10a, 1-(3,4-Dichlorophenyl)-1,4-dihydro-4,4-dimethyl-7-pentylchromeno[4,3-c]pyrazol-9-ol], in series [1], the “Binding to CB1 receptor (in words)” value is reported as “binds weakly to the CB1 cannabinoid receptor” and affinity was put at a Ki of 0.607 ± 0.151 µM. Besides, in series [2], the inhibition constant (Ki) was > 40 µM.

Take `CCCCCc1cc(O)c2c(c1)OC(C)(C)c1cnn(C)c1-2` [Compound 8a, 1,4-Dihydro-1,4,4-trimethyl-7-pentylchromeno[4,3-c]pyrazol-9-ol]: in series [1], the “Binding to CB1 receptor (in words)” value is “failed to bind to either CB1 or CB2 receptors”, the inhibitory constant (Ki) amounted to 4.7 ± 1.2 µM and the “CB1/CB2 selectivity ratio CB1 versus CB2” value turned out to be 0.7. Moreover, in series [2], the “Binding to CB2 receptor (in words)” value is recorded as “failed to bind to either CB1 or CB2 receptors” and the inhibitory constant (Ki) is 3.46 ± 1 µM.

Turning to `CCCCCc1cc(O)c2c(c1)OC(C)(C)c1cn[nH]c1-2` [Compound 7, 1,4-Dihydro-4,4-dimethyl-7-pentylchromen[4,3-c]pyrazol-9-ol], in series [1], the “Binding to CB1 receptor (in words)” value is reported as “failed to bind to either CB1 or CB2 receptors” and the “CB1/CB2 selectivity ratio CB1 versus CB2” value is on record as 0.5. The inhibition constant (Ki) in series [1] (read-out: hCB1 Ki, [3H]-CP55940 radioligand, membranes of transfected HEK293 EBNA cells, mean ± SEM of at least three experiments) worked out at 4.1 ± 0.8 µM. For the same molecule, in series [2], the “Binding to CB2 receptor (in words)” value was “failed to bind to either CB1 or CB2 receptors”. In addition, the inhibitory constant (Ki) in series [2] (read-out: hCB2 Ki, [3H]-CP55940 radioligand, membranes of transfected HEK293 EBNA cells, mean ± SEM of at least three experiments) was 2.01 ± 0.5 µM.

As for `CCCCCc1cc(O)c2c(c1)OC(C)(C)c1cn(CC)nc1-2` [Compound 9b, 2-Ethyl-2,4-dihydro-4,4-dimethyl-7-pentylchromeno[4,3-c]pyrazol-9-ol], in series [1], the “Binding to CB1 receptor (in words)” value is “failed to bind to either CB1 or CB2 receptors” and the Ki is > 40 µM. Moreover, in series [2], the “Binding to CB2 receptor (in words)” value is recorded as “failed to bind to either CB1 or CB2 receptors” and affinity was put at a Ki of 4.45 ± 1.01 µM.

(Values after paper PMC4049093 (ChemMedChem, 2012).)
